# Key:
# Assay type in all cases: in vivo
# rTg4510 mice [1] = experiment: Morris Water Maze behavioral test, study of Example 1 and Example 12; conditions: once daily by gavage 12.5 weeks, Example 1 at 7 and 20 mg/kg, Example 12 at 20 mg/kg, vs vehicle treated rTg4510, FIG. 1
# Text: (§1) Double transgenic rTg4510 mice are an aggressive Tauopathy model expressing the full-length human Tau carrying the P301L mutation (Tau4R0N-P301L) under the control of the tetracycline-inducible CaMKII promoter (Ramsden et al., J. Neurosci., 2005⋅25(46):10637-10647). Wild-type animals and single transgenic mice expressing only the tetracycline-controlled transactivator (tTA) were used as genotype controls. The study comprised 6 treatment groups (n=20 mice/group) with the following group distribution (see Table 5). Compounds or vehicle control were administered once daily by gavage for 12.5 weeks starting at the age of 5.5 weeks. The Morris Water Maze (MWM) behavioral test was performed after 12.5 weeks of treatment over 5 consecutive days. During MWM testing daily dosing was continued. Behavioral testing (MWM) was performed only on female mice (around n=11 female/group). […]
# The MWM was performed in a circular tank, measuring 48″ in diameter. […] Trials were video recorded and analyzed by a computer program (WaterMaze; Actimetrics, Wilmette, Ill.). […] Percent time spent in each quadrant (target, left and right adjacent, and opposite) were calculated for probe trials. […] Data were analyzed by 2-way ANOVA followed by post-hoc comparisons and shown statistics refers to differences compared to vehicle treated rTg4510 mice.
# CD68 positive microglia = experiment: CD68 histology (neuroinflammation), study of Example 1 and Example 12; conditions: rTg4510 mice, once daily by gavage 12.5 weeks; Example 1 at 7 and 20 mg/kg, Example 12 at 20 mg/kg; vs vehicle treated rTg4510; FIG. 3
# Text: Double transgenic rTg4510 mice are an aggressive Tauopathy model expressing the full-length human Tau carrying the P301L mutation (Tau4R0N-P301L) under the control of the tetracycline-inducible CaMKII promoter (Ramsden et al., J. Neurosci., 2005⋅25(46):10637-10647). Wild-type animals and single transgenic mice expressing only the tetracycline-controlled transactivator (tTA) were used as genotype controls. The study comprised 6 treatment groups (n=20 mice/group) with the following group distribution (see Table 5). Compounds or vehicle control were administered once daily by gavage for 12.5 weeks starting at the age of 5.5 weeks. The Morris Water Maze (MWM) behavioral test was performed after 12.5 weeks of treatment over 5 consecutive days. During MWM testing daily dosing was continued. Behavioral testing (MWM) was performed only on female mice (around n=11 female/group). Measurements of cortical atrophy and histology for misfolded Tau (MC1) and CD68 were performed on 7 animals/group excluding wild-type animals.
# A systematic random set of sections for five sagittal sections per animal (a total of 175 sections) was used for CD68 histological staining. […] Data were analyzed by 1-way ANOVA followed by post-hoc comparisons and shown statistics refers to differences compared to vehicle treated rTg4510 mice.
# rTg4510 mice [2] = experiment: Cortex size (cortical atrophy), study of Example 1 and Example 12; conditions: once daily by gavage 12.5 weeks, Example 1 at 7 and 20 mg/kg, Example 12 at 20 mg/kg, vs vehicle treated rTg4510, FIG. 2A
# Text: as §1, with “weeks.” for “weeks. The Morris Water Maze (MWM) behavioral test was performed after 12.5 weeks of treatment over 5 consecutive days. During MWM testing daily dosing was continued. Behavioral testing (MWM) was performed only on female mice (around n=11 female/group).”
# (§2) After behavioral testing, mice were deeply anesthetized by standard injectable anesthesia and transcardially perfused with cold PBS. […] Sections from 7 mice per group, excluding wild-type animals, were collected from around 10 mediolateral levels starting 0.2 mm lateral from midline, mounted on slides, and used to quantify the cortex size. […] To reduce auto-fluorescence of the tissue, sections were incubated with a solution of 0.1% Sudan Black (Sigma) in 70% ethanol for 15 minutes at room temperature, then washed four times 5 minutes in PBS, and mounted using ProLong Gold Antifade reagent (Invitrogen). Staining was visualized on the Nikon Eclipse Ti microscope, imaged using Nikon DS-Fi2 camera, and quantified using the NIS-Element AR4.13.1 software. […]
# misfolded Tau (MC1) = target: T1, misfolded Tau (MC1) (Homo sapiens, UniProt P10636, P618L); experiment: Misfolded Tau by MC1 histology, study of Example 1 and Example 12; conditions: rTg4510 mice, once daily by gavage 12.5 weeks; Example 1 at 7 and 20 mg/kg, Example 12 at 20 mg/kg; vs vehicle treated rTg4510; FIG. 2B
# T1 construct: expressing the full-length human Tau carrying the P301L mutation (Tau4R0N-P301L); from tissue; host or cells: brain (cortex) of double transgenic rTg4510 mice
# Text: as §1, with “weeks.” for “weeks. The Morris Water Maze (MWM) behavioral test was performed after 12.5 weeks of treatment over 5 consecutive days. During MWM testing daily dosing was continued. Behavioral testing (MWM) was performed only on female mice (around n=11 female/group).”
# as §2
# T1 sequence (P10636 1-383 isoform P10636-6 P243L): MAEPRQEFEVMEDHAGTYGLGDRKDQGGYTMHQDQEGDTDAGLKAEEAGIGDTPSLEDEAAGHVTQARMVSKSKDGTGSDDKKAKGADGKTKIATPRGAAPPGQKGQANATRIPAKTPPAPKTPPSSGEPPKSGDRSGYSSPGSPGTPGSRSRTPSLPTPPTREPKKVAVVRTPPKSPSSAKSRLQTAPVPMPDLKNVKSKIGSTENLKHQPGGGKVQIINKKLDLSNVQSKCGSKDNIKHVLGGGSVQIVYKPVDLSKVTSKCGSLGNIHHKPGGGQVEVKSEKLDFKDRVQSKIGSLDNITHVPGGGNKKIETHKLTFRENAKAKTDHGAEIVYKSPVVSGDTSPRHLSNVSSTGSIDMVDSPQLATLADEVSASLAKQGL
Compound,percentage of time spent in the target quadrant (MWM probe trial) (rTg4510 mice [1]),CD68 positive microglia (CD68 positive microglia),cortex size (rTg4510 mice [2]),misfolded Tau (MC1 histology) (misfolded Tau (MC1))
CC(C)N1CCc2c(c3ccc(Nc4ccc5nc(N6CCOCC6)sc5c4)nc3n2C)C1 [Example 1],dose-dependent increase,decrease,dose-dependent increase,dose-dependent decrease
CN(C)[C@@H]1CCc2c(c3ccc(Nc4ccc5nc(N6CCOCC6)sc5c4)nc3n2C)C1 [Example 12],significant increase,significant decrease,significant increase,significant decrease

# From patent US12202840B2, “Compounds for the treatment or alleviation of disorders associated with Tau aggregates” (AC Immune SA, priority 2018, dated 2025)
